Assay results: publication PMC10674866, “Electrosprayed Nanoparticles Containing Mangiferin-Rich Extract from Mango Leaves for Cosmeceutical Application” (Nanomaterials, 2023)
In brackets after ≈: the same amount, converted by molar mass.

Assays:
Type in all cases: biochemical
[1] = target: T1, hyaluronidase from bovine (Bos taurus, UniProt Q2YDK3); experiment: turbidity with acidic albumin, absorbance at […] nm; details: read-out: % inhibition at 40.0 μg/mL
T1 construct: gene SPAM1; commercial native enzyme (Sigma-Aldrich)
T1 sequence (Q2YDK3 36-553): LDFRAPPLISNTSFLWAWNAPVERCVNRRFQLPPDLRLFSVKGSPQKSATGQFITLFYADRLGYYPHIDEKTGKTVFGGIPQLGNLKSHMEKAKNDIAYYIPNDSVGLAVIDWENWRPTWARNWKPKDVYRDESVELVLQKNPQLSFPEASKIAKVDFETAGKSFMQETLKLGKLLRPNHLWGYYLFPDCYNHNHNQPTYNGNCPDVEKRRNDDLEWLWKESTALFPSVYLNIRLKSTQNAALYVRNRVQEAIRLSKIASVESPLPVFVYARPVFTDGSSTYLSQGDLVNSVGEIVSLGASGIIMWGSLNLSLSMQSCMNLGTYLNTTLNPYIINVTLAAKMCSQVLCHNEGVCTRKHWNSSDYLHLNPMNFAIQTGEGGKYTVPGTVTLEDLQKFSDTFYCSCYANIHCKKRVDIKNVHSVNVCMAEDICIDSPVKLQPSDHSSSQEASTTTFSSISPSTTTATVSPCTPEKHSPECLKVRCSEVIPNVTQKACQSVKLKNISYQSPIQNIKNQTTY

[2] = target: T2, collagenase from Histidium histolyticum; experiment: fluorescence assay of collagen hydrolysis ([…],4-DHPAA / periodate); details: collagen substrate; borate buffer pH 7.5; 5 mM CaCl2; 37 °C
T2 construct: gene colG

tyrosinase from mushroom = target: T3, tyrosinase from mushroom; experiment: absorbance at […] nm; details: L-tyrosine substrate; 20 mM phosphate pH 6.8; room temperature
T3 construct: gene PPO1

SMILES | inhibition at 40 µg/mL [1] [%] | IC50 [2] [µg/mL] | IC50 (tyrosinase from mushroom) [µg/mL]
O=c1c2cc(O)c(O)cc2oc2cc(O)c([C@@H]3O[C@H](CO)[C@@H](O)[C@H](O)[C@H]3O)c(O)c12 [mangiferin] | 1.72 ± 1.13 | 30.06 ± 0.001 (≈ 71.2 µM) | –
O=C1O[C@H]([C@@H](O)CO)C(O)=C1O [ascorbic acid] | – | 107.84 ± 0.001 (≈ 612 µM) | 69.8 ± 0.018 (≈ 396 µM)
